Data reported in publication PMC2872594 (Clinical Medicine. Oncology, 2009).
Read-outs that look alike come from different tables or passages of the source.

Legend:
A2780/AD cells = assay: In vitro cytotoxicity (WSK-8) assay; format: cell-based
Experimental: In vitro cytotoxicity (WSK-8) assays
The proliferation of exponential phase cultures of A2780/AD cells was assessed by colorimetric assay (WSK-8). In brief, cells were plated onto a 96 well microtiter plates at 5,000 cells per well. After a 24 hour incubation period to facilitate adherence, the RPMI media was removed and replaced with 100 or 200 μL of fresh media containing the different concentrations of drug. The cells were then incubated for 1 or 3 days at 37 °C at 95% humidity and 5% CO2. The media was then removed, and replaced with 100 μL fresh media containing 10% WSK-8 dye. The plates were incubated for 1.5 hours and subsequently measured at 450 nm with a 96-well plate reader. A non-linear curve fitted to the concentrations tested was used and the data plotted using Origin software. Each concentration was run in triplicate, and drug was tested 3 times.

[1] = system: reduced folate carrier (RFC); details: cited from earlier work
folate receptor (FR) = details: cited from earlier work
[2] = target: T1, dihydrofolate reductase (DHFR) (Homo sapiens, UniProt P00374); assay: In vitro, cell free DHFR inhibition assay; format: biochemical; details: cell free colorimetric assay, absorbance over 2.5 minutes
T1 construct: purchased Sigma Aldrich
T1 sequence (P00374 1-187): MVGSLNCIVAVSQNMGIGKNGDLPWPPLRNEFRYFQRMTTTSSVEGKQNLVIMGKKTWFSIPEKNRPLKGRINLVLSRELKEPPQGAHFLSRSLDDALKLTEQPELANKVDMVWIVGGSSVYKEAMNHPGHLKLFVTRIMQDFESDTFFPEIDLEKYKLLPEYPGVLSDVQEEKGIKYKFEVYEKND
Experimental: In vitro, cell free DHFR inhibition assay
The DHFR calorimetric assay was purchased from Sigma Aldrich, and was performed according to instructions. Briefly, DHFR was mixed with inhibitor and NADPH.
The percent of control was plotted, and a fit using a power regression line used.

[3] = Stability study in PBS buffer (HPLC); format: physicochemical; details: phosphate buffered saline pH 7.4, 37 °C
Experimental: To explain the in vitro results, the stability of the compounds was examined. (3) was dissolved in phosphate buffered saline at a pH of 7.4, and incubated at 37 °C. Time points were taken at 24 and 72 hours. […] While not completely stable over the time tested, the stability of the carbamate linkage could be preventing the nucleoside from being released in the cell over the earlier time points. This is consistent with previous nucleoside conjugate work reported and the observation that (2) and (3) have a greater toxicity at 72 hours than the carrier system (1). The delay in the release could explain the discrepancies between the conjugated and the unconjugated systems.
(3) was dissolved in PBS buffer 1 at pH 7.4 in a concentration of [l mM]. The solution was incubated at 37 °C for 24 and 72 hours. Samples from the solution were examined using the HPLC Eclipse XDB C18 analytical column (4.6 × […]; Agilent Technologies). The method conditions were the same as the purification with a flow rate of 0.7 ml/min.

[4] = A2780AD, 24 h, read-out: In vitro IC50, 24 hours
[5] = A2780AD, 72 h, read-out: In vitro IC50, 72 hours
[6] = A2780/AD ovarian cancer cell line, 24 hours incubation, folate deficient media, read-out: In vitro IC50, 24 hours
[7] = A2780/AD ovarian cancer cell line, 72 hours incubation, folate deficient media, read-out: In vitro IC50, 72 hours

Compound	IC50 [2]	IC50 (A2780/AD cells; [6])	IC50 (A2780/AD cells; [7])	other results
Cc1cn([C@H]2C[C@H](N=[N+]=[N-])[C@@H](CO)O2)c(=O)[nH]c1=O [AZT, 3’-Azido-3’-deoxythymidine, reference compound]	–	–	–	IC50 (A2780/AD cells; [4]): > 10000 µM; IC50 (A2780/AD cells; [5]): 8000 ± 1000 µM
Nc1nc(=O)c2nc(CNc3ccc(C(=O)N[C@@H](CCC(=O)O)C(=O)O)cc3)cnc2[nH]1 [Folate, Folic acid]	–	–	–	Km [1]: 200 to 400 µM
CN(Cc1cnc2nc(N)nc(N)c2n1)c1ccc(C(=O)N[C@@H](CCC(=O)O)C(=O)O)cc1 [MTX, Methotrexate]	–	–	–	IC50 (A2780/AD cells; [4]): > 10000 µM; IC50 (A2780/AD cells; [5]): 7000 ± 900 µM; Km [1]: 5 to 10 µM; Greater affinity for the RFC over folate ([1]; relative to folate): 100 times; Lower affinity of FR for MTX over folate (folate receptor (FR); relative to folate): approximately 100 fold; Less affinity for the FR than oxidized folate (folate receptor (FR); relative to oxidized folate): 100 fold
γ-MTX-PEG-AZT [Compound 2]	152 µM	> 1000 µM	430 ± 30 µM	–
γ-MTX-PEG-IUdR [Compound 3]	394 µM	> 1000 µM	211 ± 100 µM	Stability, free nucleoside after 24 hours ([3]; 24 hours): no sign of free nucleoside; Stability, free nucleoside after 72 hours ([3]; 72 hours): partial decomposition
γ-MTX-PEG-NH2 [Compound 1]	200 µM	> 1000 µM	700 ± 100 µM	–
γ-MTX-PEG-ddC [Compound 4]	178 µM	> 1000 µM	960 ± 80 µM	–
